Assay results as given in PMC11348189, “Disorder-to-order active site capping regulates the rate-limiting step of the inositol pathway” (Proceedings of the National Academy of Sciences of the …, 2024).

How the values were obtained:
[1] = molecular target: T1, endogenous fungal MIPS (myo-inositol-1-phosphate synthase) (Thermochaetoides thermophila, UniProt G0SDP4); test: cryo-EM structure ([…] Å); assay type: binding; settings: endogenously bound in all four active sites; native SEC fraction, pH 7.4; monovalent cation (probably K+) near NAD
T1 construct: gene CTHT_0052500; native full-length enzyme in SEC fraction of T. thermophila cell extract, no tag; 240 kDa homotetramer; residues 40-552 resolved
T1 sequence (G0SDP4 1-552): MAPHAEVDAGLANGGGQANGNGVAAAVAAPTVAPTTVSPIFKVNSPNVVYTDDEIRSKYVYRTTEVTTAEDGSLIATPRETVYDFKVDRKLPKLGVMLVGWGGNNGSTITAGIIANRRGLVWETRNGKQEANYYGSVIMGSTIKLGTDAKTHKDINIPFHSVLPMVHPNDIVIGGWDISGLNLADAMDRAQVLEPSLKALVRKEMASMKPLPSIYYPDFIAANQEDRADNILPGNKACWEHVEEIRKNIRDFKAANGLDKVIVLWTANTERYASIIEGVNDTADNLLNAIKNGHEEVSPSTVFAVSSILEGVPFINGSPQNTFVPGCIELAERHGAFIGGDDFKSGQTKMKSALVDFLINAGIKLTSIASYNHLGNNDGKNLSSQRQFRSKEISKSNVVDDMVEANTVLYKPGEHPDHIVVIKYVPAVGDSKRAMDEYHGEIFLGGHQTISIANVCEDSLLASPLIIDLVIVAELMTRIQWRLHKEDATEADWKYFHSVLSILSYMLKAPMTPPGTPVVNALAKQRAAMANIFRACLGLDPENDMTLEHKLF

[2] = molecular target: T1, endogenous fungal MIPS (myo-inositol-1-phosphate synthase); test: phosphate release after periodate oxidation, molybdate, […] nm; assay type: biochemical; settings: SEC fraction of cell extract; 5 mM G6P, 0.8 mM NAD+, 14 mM ammonium acetate, 2 mM DTT, 100 mM Tris-acetate pH 8, 37 °C

| Compound | cryo-EM structure (2.48 Å) [1] | phosphate release after periodate oxidation, molybdate, 820 nm [2] |
| --- | --- | --- |
| NC(=O)c1ccc[n+]([C@@H]2O[C@H](COP(=O)(O)OP(=O)(O)OC[C@H]3O[C@@H](n4cnc5c(N)ncnc54)[C@H](O)[C@@H]3O)[C@@H](O)[C@H]2O)c1 [NAD^+] | allowing for the unambiguous placement of the cofactor NAD (Fig. 2A) |  |
| O=P(O)(O)OC[C@H]1OC(O)[C@H](O)[C@@H](O)[C@@H]1O (some centres unmarked) [glucose-6-phosphate] |  | probe the identified fractions for their capacity to convert G6P to IMP |
